The target in the assay is T1, human PAH with the R408W mutation (A375 R408W cells) (Homo sapiens, UniProt P00439, R408W).
T1 construct: expressed in transfected cells
T1 sequence (P00439 1-452 R408W): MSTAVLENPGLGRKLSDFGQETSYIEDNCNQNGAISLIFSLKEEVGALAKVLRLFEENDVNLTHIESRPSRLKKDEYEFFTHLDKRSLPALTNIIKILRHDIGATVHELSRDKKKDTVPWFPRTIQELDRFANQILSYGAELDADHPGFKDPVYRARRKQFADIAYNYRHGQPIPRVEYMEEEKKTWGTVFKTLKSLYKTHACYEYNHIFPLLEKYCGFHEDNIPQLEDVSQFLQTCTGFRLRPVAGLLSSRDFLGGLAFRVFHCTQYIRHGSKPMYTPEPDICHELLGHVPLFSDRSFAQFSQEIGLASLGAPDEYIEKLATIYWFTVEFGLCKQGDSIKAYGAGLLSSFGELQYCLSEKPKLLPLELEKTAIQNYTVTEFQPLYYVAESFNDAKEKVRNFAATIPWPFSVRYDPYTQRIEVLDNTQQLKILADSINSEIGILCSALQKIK
The assay is described as follows: Cell Based Phenylalanine Flux Assay. The note with it: A375 R408W cells; 24 hrs with compound, then 20 μM sepiapterin and 800 μM 13C9,15N-Phenylalanine for 4 hours; 13C-Tyrosine by LC-MS; average where tested multiple times. Summed up:
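Puromycin-selected A375 line, lentiviral hPAH R408W; cmpd 24 h, 37 °C, 5% CO2, 0.5% DMSO; then 20 μM sepiapterin + 800 μM 13C9,15N-Phe, 4 h; media extracted in 80% MeCN; 13C-Tyr by LC-MS; AC50 from 10-pt curves.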
As usually defined, the AC50 is the concentration at which the activity in the assay is half-maximal. For `O=C(c1ocnc1CC(F)F)N1CCc2[nH]cnc2[C@@H]1c1nc2cc(F)ccc2o1` [Example 866, (R)-(4-(2,2-difluoroethyl)oxazol-5-yl)(4-(5-fluorobenzo[d]oxazol-2-yl)-6,7-dihydro-1H-imidazo[4,5-c]pyridin-5(4H)-yl)methanone], the AC50 lay in the range of 500 to 1000 nM. On to `O=C(c1nnc(-c2ncccc2F)o1)N1CCc2[nH]cnc2[C@@H]1c1nc2cccc(F)c2o1` [Example 867, (R)-(4-(7-fluorobenzo[d]oxazol-2-yl)-6,7-dihydro-1H-imidazo[4,5-c]pyridin-5(4H)-yl)(5-(3-fluoropyridin-2-yl)-1,3,4-oxadiazol-2-yl)methanone], for which the AC50 lay within 500 to 1000 nM. For the compound `O=C(c1nnc(-c2ncccc2F)o1)N1CCc2[nH]cnc2[C@H]1c1nc2cccc(F)c2o1` [Example 868, (S)-(4-(7-fluorobenzo[d]oxazol-2-yl)-6,7-dihydro-1H-imidazo[4,5-c]pyridin-5(4H)-yl)(5-(3-fluoropyridin-2-yl)-1,3,4-oxadiazol-2-yl)methanone], the AC50 was no more than 500 nM. The figure for `Cc1cccc2nc([C@@H]3c4nc[nH]c4CCN3C(=O)c3nnc(-c4ccn(C)n4)o3)oc12` [Example 869, (S)-(5-(1-methyl-1H-pyrazol-3-yl)-1,3,4-oxadiazol-2-yl)(4-(7-methylbenzo[d]oxazol-2-yl)-6,7-dihydro-1H-imidazo[4,5-c]pyridin-5(4H)-yl)methanone] is no more than 500 nM.

For the compound `Cc1cccc2nc([C@H]3c4nc[nH]c4CCN3C(=O)c3nnc(-c4ccn(C)n4)o3)oc12` [Example 870, (R)-(5-(1-methyl-1H-pyrazol-3-yl)-1,3,4-oxadiazol-2-yl)(4-(7-methylbenzo[d]oxazol-2-yl)-6,7-dihydro-1H-imidazo[4,5-c]pyridin-5(4H)-yl)methanone], the AC50 was in the range of 1000 to 5000 nM. Then `Cc1cccc2nc([C@H]3c4nc[nH]c4CCN3C(=O)c3nnc(-c4cnn(C(F)F)c4)o3)oc12` [Example 871, (R)-(5-(1-(difluoromethyl)-1H-pyrazol-4-yl)-1,3,4-oxadiazol-2-yl)(4-(7-methylbenzo[d]oxazol-2-yl)-6,7-dihydro-1H-imidazo[4,5-c]pyridin-5(4H)-yl)methanone], with 1000 to 5000 nM; and `Cc1cccc2nc([C@@H]3c4nc[nH]c4CCN3C(=O)c3nnc(-c4cnn(C(F)F)c4)o3)oc12` [Example 872, (S)-(5-(1-(difluoromethyl)-1H-pyrazol-4-yl)-1,3,4-oxadiazol-2-yl)(4-(7-methylbenzo[d]oxazol-2-yl)-6,7-dihydro-1H-imidazo[4,5-c]pyridin-5(4H)-yl)methanone], with 500 to 1000 nM; and `O=C(c1ocnc1CC(F)F)N1CCc2[nH]cnc2[C@H]1c1nc2ccccc2o1` [Example 873, (S)-(4-(benzo[d]oxazol-2-yl)-6,7-dihydro-1H-imidazo[4,5-c]pyridin-5(4H)-yl)(4-(2,2-difluoroethyl)oxazol-5-yl)methanone], with no more than 500 nM. The figure for `O=C(c1ocnc1CC(F)F)N1CCc2[nH]cnc2[C@@H]1c1nc2ccccc2o1` [Example 874, (R)-(4-(benzo[d]oxazol-2-yl)-6,7-dihydro-1H-imidazo[4,5-c]pyridin-5(4H)-yl)(4-(2,2-difluoroethyl)oxazol-5-yl)methanone] is 500 to 1000 nM.

With `O=C(c1nnc(-c2cnn(C(F)F)c2)o1)N1CCc2[nH]cnc2[C@H]1c1nc2cccc(F)c2o1` [Example 875, (S)-(5-(1-(difluoromethyl)-1H-pyrazol-4-yl)-1,3,4-oxadiazol-2-yl)(4-(7-fluorobenzo[d]oxazol-2-yl)-6,7-dihydro-1H-imidazo[4,5-c]pyridin-5(4H)-yl)methanone], the AC50 was no more than 500 nM. `O=C(c1nnc(-c2cnn(C(F)F)c2)o1)N1CCc2[nH]cnc2[C@@H]1c1nc2cccc(F)c2o1` [Example 876, (R)-(5-(1-(difluoromethyl)-1H-pyrazol-4-yl)-1,3,4-oxadiazol-2-yl)(4-(7-fluorobenzo[d]oxazol-2-yl)-6,7-dihydro-1H-imidazo[4,5-c]pyridin-5(4H)-yl)methanone]: the AC50 was no more than 500 nM.

As to `COCc1ccc2c(C(=O)N3CCc4[nH]cnc4[C@H]3c3nc4cc(C)ccc4o3)cnn2c1` [Example 877, (S)-(6-(methoxymethyl)pyrazolo[1,5-a]pyridin-3-yl)(4-(5-methylbenzo[d]oxazol-2-yl)-6,7-dihydro-1H-imidazo[4,5-c]pyridin-5(4H)-yl)methanone], the AC50 was in the range of 1000 to 5000 nM. Consider `COCc1ccc2c(C(=O)N3CCc4[nH]cnc4[C@@H]3c3nc4cc(C)ccc4o3)cnn2c1` [Example 878, (R)-(6-(methoxymethyl)pyrazolo[1,5-a]pyridin-3-yl)(4-(5-methylbenzo[d]oxazol-2-yl)-6,7-dihydro-1H-imidazo[4,5-c]pyridin-5(4H)-yl)methanone], for which the AC50 was no less than 5000 nM. The figure for `O=C(c1cnn(-c2ccccn2)c1)N1CCc2[nH]cnc2[C@H]1c1nc2cc(F)ccc2o1` [Example 879, (S)-(4-(5-fluorobenzo[d]oxazol-2-yl)-6,7-dihydro-1H-imidazo[4,5-c]pyridin-5(4H)-yl)(1-(pyridin-2-yl)-1H-pyrazol-4-yl)methanone] is 1000 to 5000 nM.

Consider `O=C(c1cnn(-c2ccccn2)c1)N1CCc2[nH]cnc2[C@@H]1c1nc2cc(F)ccc2o1` [Example 880, (R)-(4-(5-fluorobenzo[d]oxazol-2-yl)-6,7-dihydro-1H-imidazo[4,5-c]pyridin-5(4H)-yl)(1-(pyridin-2-yl)-1H-pyrazol-4-yl)methanone], for which the AC50 was in the range of 1000 to 5000 nM. Then `Cc1nn(C)cc1-c1nnc(C(=O)N2CCc3[nH]cnc3[C@H]2c2nc3cc(F)ccc3o2)o1` [Example 881, (S)-(5-(1,3-dimethyl-1H-pyrazol-4-yl)-1,3,4-oxadiazol-2-yl)(4-(5-fluorobenzo[d]oxazol-2-yl)-6,7-dihydro-1H-imidazo[4,5-c]pyridin-5(4H)-yl)methanone], with 1000 to 5000 nM. Then `Cc1nn(C)cc1-c1nnc(C(=O)N2CCc3[nH]cnc3[C@@H]2c2nc3cc(F)ccc3o2)o1` [Example 882, (R)-(5-(1,3-dimethyl-1H-pyrazol-4-yl)-1,3,4-oxadiazol-2-yl)(4-(5-fluorobenzo[d]oxazol-2-yl)-6,7-dihydro-1H-imidazo[4,5-c]pyridin-5(4H)-yl)methanone], with 1000 to 5000 nM; and `Cc1ccc2nc([C@H]3c4nc[nH]c4CCN3C(=O)c3ocnc3C(F)F)oc2c1` [Example 883, (R)-(4-(difluoromethyl)oxazol-5-yl)(4-(6-methylbenzo[d]oxazol-2-yl)-6,7-dihydro-1H-imidazo[4,5-c]pyridin-5(4H)-yl)methanone], with 500 to 1000 nM. The figure for `Cc1ccc2nc([C@@H]3c4nc[nH]c4CCN3C(=O)c3ocnc3C(F)F)oc2c1` [Example 884, (S)-(4-(difluoromethyl)oxazol-5-yl)(4-(6-methylbenzo[d]oxazol-2-yl)-6,7-dihydro-1H-imidazo[4,5-c]pyridin-5(4H)-yl)methanone] is no more than 500 nM.

As to `CCn1cnnc1C(=O)N1CCc2[nH]cnc2[C@H]1c1nc2cc(F)ccc2o1` [Example 885, (S)-(4-ethyl-4H-1,2,4-triazol-3-yl)(4-(5-fluorobenzo[d]oxazol-2-yl)-6,7-dihydro-1H-imidazo[4,5-c]pyridin-5(4H)-yl)methanone], the AC50 was 1000 to 5000 nM.

Values taken from patent US20250171437A1 (Agios Pharmaceuticals,Inc., priority 2022, published 2025).
